Assays:
HMGN1 [1] = assay: HMGN1 ELISA in culture medium of A549 cancer cells (Example 12, Table 66); assay type: cell-based, human; settings: Homo sapiens, A549, doxorubicin-induced senescent A549 cells, test compound 30 μM, ELISA, DMSO = 100; read-out: HMGN1 (amount of HMGN1 secreted in the cell culture)
[2] = open field test in obese mice given senescent cells killed by test compounds (Example 16, Table 72); assay type: in vivo, C57BL6J mice; settings: obese mice administered senescent cells whose death was induced by the test compound
Text: (§1) To obtain preadipocytes, groin fat tissue was collected from an 8-week-old female C57BL6J mouse (purchased from KRIBB Laboratory Animal Resource Center). The fat tissue was cut into small pieces and treated with collagenase to decompose the fat tissue, then centrifuged to collect the stromal vascular fraction (SVF) containing preadipocytes. It was washed with a washing medium (HBSS, purchased from GenDEPOT; 3.5% Albumin Fraction V, purchased from GenDEPOT; 100 U/ml Penicillin & Streptomycin, purchased from Invitrogen), mixed again, and extracted by filtering through a 100 μm nylon mesh. The isolated preadipocytes were cultured in the designated medium (DMEM, purchased from GenDEPOT; 20% FBS, purchased from GenDEPOT; 100 U/ml Penicillin & Streptomycin, purchased from Invitrogen). In the same manner as Example 1, cells were treated with doxorubicin at a concentration of 250 nM for 24 hours and cultured for an additional 21 days to induce cell senescence. Cells were treated with doxorubicin at a concentration of 250 nM for 24 hours and cultured for an additional 21 days to induce cell senescence. By treating the test compounds in the same manner as in Example 13, it was confirmed using an optical microscope that the death of most senescent cells was induced. The killed preadipocytes were washed using PBS (purchased from Welgene) and then mixed with PBS at a concentration of 5×10^5 cells/200 μl. It was administered subcutaneously to 8-week-old female C57BL6J mice (purchased from KRIBB Laboratory Animal Resource Center). At 7 and 10 days after administration of the killed senescent cells, 2 million senescent preadipocytes were mixed in 200 μl of PBS and administered into the abdominal cavity of mice. After administration of killed senescent cells, obesity was induced in mice with a high-fat diet (DIO) for 8 weeks in the same manner as in Example 9-1. Afterwards, the mouse was sacrificed in the same manner as in Example 7-2, total RNA was extracted from the groin fat tissue, and qRT-PCR was performed and analyzed using the synthesized cDNA. […] The mRNA amount of p16, MMP3, and IL6 without administration of senescent cells whose death was induced by the test compounds was calculated as 100%, and the amount of p16, MMP3, and IL6 after administration of the senescent cells whose death was induced by the test compounds was compared with them. Furthermore, an open field test was performed to analyze aging-related frailty in mice using the same method as Example 7-7. […] The amount of activity evaluation without administration of senescent cells whose death was induced by the test compounds was calculated as 100% and compared it with the amount of activity evaluation after administration of senescent cells whose death was induced by the test compounds.

p16, MMP3, IL6 = p16, MMP3, IL6 mRNA qRT-PCR in groin fat of obese mice given senescent cells killed by test compounds (Example 16, Table 72); assay type: in vivo, C57BL6J mice; settings: obese mice administered senescent cells whose death was induced by the test compound
Text: as §1, with “compounds. […]” for “compounds.”

A549 = assay: CellTiter-Glo cell viability of senescent A549 cancer cells (Example 12, Table 67); assay type: cell-based, human; settings: Homo sapiens, A549, doxorubicin-induced senescent A549 cancer cells, CellTiter-Glo, read-out: Survival (%); for viability at 1.1 µM: 1.1 μM test compound; for viability at 10 µM: 10 μM test compound; for viability at 30 µM: 30 μM test compound
[3] = test system: foreskin cells in which senescence was induced by doxorubicin; assay: CellTiter-Glo cell viability of doxorubicin-induced senescent foreskin cells (Examples 1-2, 10, 11, 13; Tables 4, 63, 65); assay type: cell-based, human; settings: Homo sapiens, 72 h, doxorubicin-induced senescent foreskin cells, CellTiter-Glo, 0 μM = 100, read-out: Survival (%); for viability at 1.1 µM: 1.1 μM test compound; for viability at 10 µM: 10 μM test compound; for viability at […]: […] test compound; for viability at 30 µM: 30 μM test compound
Method: After 3 days, cell viability was measured using CellTiter-Glo Luminescent Cell Viability Assay (Promega) or light microscopy.

HMGN1 [4] = assay: HMGN1 ELISA in culture medium of foreskin cells (Examples 10, 11; Tables 62, 63, 64); assay type: cell-based, human; settings: Homo sapiens, 30 μM test compound, doxorubicin-treated foreskin cells, DMSO = 100; read-out: HMGN1
[5] = test system: foreskin cells in which aging was induced by doxorubicin; assay: cell viability of senescent foreskin cells with caspase inhibitor QVD-Oph (Example 10, Table 61); assay type: cell-based, human; settings: QVD-Oph 20 μM alone; doxorubicin-senescent foreskin cells

| SMILES | activity at 30 µM (HMGN1 [1]) | Open Field Test Time in Center (%) [2] | IL6 mRNA (%) (p16, MMP3, IL6) | MMP3 mRNA (%) (p16, MMP3, IL6) | p16 mRNA (%) (p16, MMP3, IL6) | viability at 1.1 µM (A549) | viability at 1.1 µM [3] | activity at 30 µM (HMGN1 [4]) | viability at 10 µM (A549) | viability at 10 µM [3] | viability at […] [3] | viability at 30 µM (A549) | viability at 30 µM [3] | Survial (%) [5] |
| --- | --- | --- | --- | --- | --- | --- | --- | --- | --- | --- | --- | --- | --- | --- |
| CC1(C)CC[C@]2(NC(=O)C(C)(F)F)CC[C@]3(C)[C@H](C(=O)C=C4[C@@]5(C)C=C(C#N)C(=O)C(C)(C)[C@@H]5CC[C@]43C)[C@@H]2C1 [LX-2101, Omaveloxolone, reference compound] | 297% | 144.9 (±26.6) % | 75.9 (±6.7) % | 68.3 (±16.4) % | 73.8 (±9.7) % | 71.6% | 1.8% | 274% |  |  |  |  |  |  |
| Fc1ccc(-n2cc(CCCCN3CCC4(CC3)OCc3ccccc34)c3ccccc32)cc1 [LX-1102, Siramesine, reference compound] | 324% | 146.2 (±17.1) % | 76.2 (±7.1) % | 95.4 (±9.6) % | 82.9 (±4.8) % | 99.5% | 94% | 271% | 17.7% | 3.1% | 13.9% |  |  |  |
| CCc1ccc(C(=O)C(C)CN2CCCCC2)cc1 (stereo not drawn) [LX-1401, Eperisone, reference compound] | 287% | 166.7 (±14.8) % | 72.8 (±10.4) % | 75.1 (±9.4) % | 83.4 (±6.9) % | 99% | 96.4% | 296% | 49.9% | 10.2% | 88.1% | 22.8% | 9% |  |
| CC(C)[C@H](NC(=O)c1ccc2ccccc2n1)C(=O)N[C@@H](CC(=O)O)C(=O)COc1c(F)cccc1F [QVD] |  |  |  |  |  |  |  |  |  |  |  |  |  | 105.1 (±4.7) % |
| C[C@H]1Cc2c([nH]c3ccccc23)[C@H](c2ccc(C(=O)N[C@]34CC5C[C@H](C[C@H](C5)C3)C4)cc2)N1C(=O)CCl [LX-411] | 335% | 163 (±9) % | 71.9 (±7.2) % | 92.7 (±8.1) % | 79.7 (±6.6) % | 1.8% | 0.2% | 300% |  |  |  |  |  |  |
| COc1cc(OC)cc(O[C@H]2OC3O[C@@]4(C)CCC5[C@H](C)CCC([C@H]2C)[C@@]35OO4)c1 (stereo partly drawn) [LX-502] | 321% | 126 (±20.4) % | 83.3 (±5.1) % | 77.4 (±8)^ % | 81.7 (±7.8) % | 78.4% | 59.1% | 274% |  |  | 10.4% |  |  |  |
| CCOc1ccccc1-n1c(CN2CCNCC2)nc2ccccc2c1=O [LX-1002] | 296% | 141.1 (±18.3) % | 74.4 (±8.5) % | 68.1 (±13.8) % | 77.4 (±8.6) % | 47.6% | 4.2% | 286% |  |  |  |  |  |  |
| C[C@@H]1CC[C@@]23C[C@H](O)C(=O)[C@@]2(O)[C@]1(C)[C@H](OC(=O)CCl)C[C@@H](C1=CCn2c(=O)n(-c4ccccc4)c(=O)n2C1)[C@@H]3C [LX-1801, (2S,3aS,4S,5R,7R,8S,8aS,11R)-7-(1,3-Dioxo-2-phenyl-2,3,5,8-tetrahydro-1H-[1,2,4]triazolo[1,2-a]pyridazin-6-yl)-2,3a-dihydroxy-4,8,11-trimethyl-3-oxooctahydro-1H-4,8a-propanoazulen-5-yl 2-Chloroacetate] | 295% | 173.4 (±18.6) % | 56.4 (±12.4) % | 67.8 (±13.1) % | 62.5 (±9.4) % | 60.6% | 8.7% | 291% | 25.1% |  |  |  |  |  |
| COCC1(CO)C(=O)C2CCN1CC2 (stereo not drawn) [LX-701, Eprenetapopt, reference compound] | 297% | 181.8 (±27.1) % | 68.2 (±14.3) % | 72.5 (±9.2) % | 81.9 (±6.8) % | 99.2% | 99.3% | 277% | 91% | 45.9% | 100% | 11.3% | 27.4% |  |
| CCC(C)SSc1ncc[nH]1 (stereo not drawn) [LX-307] | 305% | 159 (±9.9) % | 87.2 (±10.5) % | 76.7 (±7.7) % | 73.1 (±8.5) % | 101% | 101% | 258% | 72.5% | 14.5% | 85.6% | 7.6% | 3.5% |  |

Reference: US20250108036A1, “COMPOSITIONS FOR REMOVING SENESCENT CELLS AND USES THEREOF” (LIFECEUTIX CO., LTD., priority 2021, published 2025)
